# Assay results as given in patent US20260234159A1, “SMALL MOLECULE TREATMENT OF FATTY LIVER DISEASE AND HCC” (SCANDIEDGE THERAPEUTICS AB, priority 2023, published 2026).
# Columns and labels:
# [1] = In vivo biosafety study in rats: histopathological and immunohistochemical examination; design: species or system Sprague Dawley male rats; conditions: 30 mg/kg, seven days
# Experimental: In vivo biosafety studies. Healthy Sprague Dawley male rats (12 weeks old, 250-280 g) were obtained from Atatürk University Experimental Research Center ([…] Turkey) and housed under standard environmental conditions (temperature 20° C.-25° C., humidity 50±20% and 12-hour light/dark diurnal cycle). Food and water were available ad libitum. Rats were randomly separated into one control group and two experimental groups (30 mg/kg/day BX-912 or JNK-IN-5A, n=5). […] The control group were received the same amount of vehicle solution only. After 7 days, rats were anaesthetized, and blood samples were collected from the abdominal aorta for biochemical and haematological analysis. The plasma was separated and stored at -80° C. for further analysis. Major organs such as heart, kidney, liver, muscle, adipose, intestine (duodenum, ileum, jejunum), pancreas, colon, and stomach were collected from all the animals for further analysis. Selected organs were fixed in 10% neutral buffered formalin for histopathological examination. Histopathological examination. […] Immunohistochemical examination. […] Slides were counter stained with hematoxylin.
# [2] = system: polychromatic erythrocytes; assay: Micronucleus frequencies (MNPCEs) as genotoxicity endpoint; type: in vivo, Sprague Dawley male rats; conditions: 30 mg/kg, seven days
# Experimental: In addition to sampling for biochemical and haematological analysis, one drop of blood samples was obtained from the animals for evaluating micronucleus frequencies as genotoxicity endpoint at the end of the experiments. Three different smears of each rat were prepared using pre-coded and cold slides, then the slides air-dried at room temperature, and fixed in ethanol for 10 min, and stained with Giemsa. […] The incidence of MN-PCEs was determined by scoring a total of 3000 PCE per animal and results were expressed as % MN [12].
# HSD fed rats = assay: In vivo efficacy study in high sucrose diet (HSD) steatosis rats; conditions: HSD plus 30 mg/kg seven days
# Excerpt: In vivo efficacy studies. After 1-week acclimation period, rats were randomly separated into two groups: control group (n=5) and high sucrose group (n=20). The control group was fed with a standard diet while the others consumed high sucrose diet (HSD). Sucrose was purchased from Sigma Chemical Co. (St Louis, MO, USA) and supplied at the dose of 10% in the drink water for two weeks.
# After 2 weeks, five rats in the HSD group were randomly sacrificed for conformation of NAFLD model. Then, the remaining rats in the HSD group were separated into three sub-groups (n=5): HSD group, HSD plus BX-912 group and HSD plus JNK-IN-5A group. BX-912 and JNK-IN-5A were dissolved in DMSO and were orally administrated using oral gavage for one week (30 mg/kg/day). The HSD group were treated with vehicle solution only.
# At the end of the experiment, rats were sacrificed after being anesthetized. Blood samples were collected from the abdominal aorta and centrifuged at 8000 rpm for 15 min at 4° C. The plasma was separated and stored at −80° C. until further analysis. Other internal organs, including the heart, adipose tissues, liver, kidney, muscle, intestine (duodenum, ileum, jejunum), pancreas, colon and stomach were immediately removed and then snap frozen in liquid nitrogen and stored at −80° C.; the liver was also fixed in 10% formaldehyde for histopathological examination.
# Histopathological examination. The liver tissues were fixed in 10% buffered formaldehyde solution. After fixation, the tissues were passed through graded alcohol and xylene series and embedded in paraffin blocks. 5 micrometer thick sections were taken serially from the paraffin blocks. Histopathological changes were evaluated by performing hematoxylin eosin staining on the sections taken. Sections were evaluated according to histopathological findings as none (−), mild (+), moderate (++) and severe (+++).
# Immunohistochemical examination. After deparaffinization, the slides were immersed in antigen retrieval solution (pH 6.0) and heated in microwave for 15 min to unmask the antigens. The sections were then dipped in 3% H2O2 for 10 min to block endogenous peroxidase activity. Protein block was dropped onto the sections, washed with PBS for 10 min. Primary antibodies (8-OH-dG, Cat No: sc-66036, Diluent Ratio: 1/100, Santa Cruz) were prepared and applied according to the usage conditions. Expose mouse and rabbit specific HRP/DAB detection IHC kit were used as follows: sections were incubated with goat anti-mouse antibody, then with streptavidin peroxidase, and finally with 3,3′ diamino benzidine+chromogen. Slides were counter stained with hematoxylin. Immunoreactivity in the sections were graded as none (−), mild (+), moderate (++) and severe (+++).
# PKL = assay: Western blot, PKL; type: cell-based, human; conditions: 10 μM, 2 days
# Experimental: (§1) HepG2 cells were seeded into a 6-well plate at 400,000 cells per well. After treatment with 10 μM of JNK-IN-5A and its derivatives for two days, lysates were harvested with CelLytic M (C2978, Sigma-Aldrich). 20 μg lysate was prepared with 2× Laemmli Sample Buffer (1610737, Biorad). SDS PAGE were performed using Mini-PROTEAN® TGX™ Precast Gels (Bio-Rad) and transferred using Trans-Blot® Turbo™ Transfer System (Bio-Rad). Primary antibody, PARP (95425, Cell signalling), Caspase 3 (ab32042, abcam), Bcl-2 (ab182858), STAT1 (HPA000982, Merk), PKL (06653, Sigma), PKM (4053S, Cell signalling), GAPDH (ab8245, abcam), P53 (ab32389, abcam), p21 (ab109199, abcam), p-S349 p62 (ab211324, abcam), p62 (ab109012, abcam), c-Myc (ab32072, abcam), GPX4 (ab125066, abcam), MMP9 (MA5-32705, Invitrogen), β-actin (ab8227, abcam), and α-tubulin (ab7291, abcam) were blotted overnight and Goat Anti-Rabbit HRP (ab205718) and goat anti-mouse IgG-HRP (sc2005, Santa Cruz Biotechnology, Inc.) were blotted for secondary antibody for one hour. ImageQuantTMLAS 500 (29-0050-63, GE) was used to detect protein bands.
# p62 (SQSTM1) = assay: Western blot, p62 and p-S349 p62; type: cell-based, human; conditions: 10 μM, 2 days
# Experimental: as §1
# HepG2 cells [3] = assay: Cellular ROS assay (DCFDA); type: cell-based, human; conditions: 10 μM, one day
# Experimental: (§2) HepG2 cells were seeded into a 6-well plate at 400,000 cells per well. After treatment with the compounds at desired concentration and time, TMRE (ab113852, abcam), Autophagy (ab139484, abcam), ROS (ab113851, abcam), and Lipid peroxidation (ab243377, abcam) assay were performed according to manufacturer's instructions. Fluorescence images were taken using ZOE™ Fluorescent Cell Imager (Biorad) and ROI of fluorescence intensity was measured and calculated by Image J. For microplate reader florescence assay, 40,000 of HepG2 cells were seeded into a 96-well plate and triplicated. GFP (Ex480 nm, Em530 nm) and RFP (Ex549 nm, Em574 nm) were measured using a microplate reader (Hidex Sense Meta Plus).
# HepG2 cells [4] = assay: Lipid peroxidation assay; type: cell-based, human
# Experimental: as §2
structure (smiles),measurement,setting,value
"N#Cc1c(NC(=O)c2cccc3ccccc23)sc2c1CCCC2 [JNK-IN-5A, N-(3-cyano-4,5,6,7-tetrahydrobenzo[b]thiophen-2-yl)-1-naphthamide]",histological structures of major organs,[1],normal histological structures
same,side effects on the rats,[1],no side effects
same,8-OH-dG expression in liver tissues,[1]; IHC,negative
same,genotoxic potential,[2],non-genotoxic
same,frequencies of MNPCEs compared to Ctrl animals,[2]; p>0.05,not statistically different
same,"toxic effect on small intestine, large intestine, stomach, heart and muscle tissues",HSD fed rats,no toxic effect
same,degeneration in hepatocytes in liver tissues,HSD fed rats; HSD 3w severe,mild
same,degeneration in renal tubule epithelium,HSD fed rats; HSD 3w severe,mild
same,fattening in the parenchyma cells of pancreas tissues,HSD fed rats; HSD 3w severe,mild
same,steatosis in hepatocytes in liver tissues,HSD fed rats; HSD 3w severe,mild
same,8-OH-dG expression in hepatocytes,HSD fed rats; HSD 3w strong,significantly decreased
same,PKL expression,PKL,notably decreased
"COc1ccc(C(=O)Nc2sc3c(c2C#N)CCCCC3)cc1OC [PKL-A135, N-(3-cyano-5,6,7,8-tetrahydro-4H-cyclohepta[b]thiophen-2-yl)-3,4-dimethoxy-benzamide]",levels of p62 and P-S349 p62,p62 (SQSTM1),significantly elevated
N#Cc1c(NC(=O)c2cccc3ccccc23)sc2c1CCN(CC(=O)Nc1cccc(Br)c1)C2 [PKL-B171],cellular ROS,HepG2 cells [3],significantly increased
same,GFP/RFP ratio (lipid peroxidation),HepG2 cells [4],statistically significant increase
